Earlier results in patent US5654179A, “Nucleic acid preparation methods” (HRI Research, Inc., priority 1994, dated 1997).

How the values were obtained:
Taq polymerase = details: cited from earlier work
[1] = system: reverse transcriptase purified from arian myeloblastosis virus; details: cited from earlier work
[2] = system: virion-associated reverse transcriptase (RTase) of murine leukemia virus (MuLV); details: cited from earlier work
DNA ligase = details: cited from earlier work
T4 DNA ligase = details: dilution, dialysis, or sucrose gradient centrifugation of cell-free extracts; cited from earlier work
[3] = system: NAD-dependent DNA ligase from E. coli; details: cited from earlier work
[4] = system: DNA ligase from mouse erythroleukemia (MEL) cells; details: dilution, dialysis, or sucrose gradient centrifugation of cell-free extracts; cited from earlier work
[5] = system: DNA-cytoplasmic DNA polymerase complex; details: cited from earlier work

hemin
inhibition of PCR / Taq polymerase (Taq polymerase): inhibit
inhibition of reverse transcriptase from myeloblastosis virus [1]: does not inhibit
reversibility of inhibition of MuLV RTase [2]: reversible inhibitor
concentration that does not affect DNA ligase activity or DNA substrate integrity (DNA ligase): ≤ 4 µM
IC50 (DNA ligase; pre-incubation, depending on the source of the DNA ligase, read-out: half-maximal inhibition of DNA ligase): 25 to 100 µM
reversibility of inhibition of T4 DNA ligase (T4 DNA ligase): not reversible
concentration up to which E. coli DNA ligase was not inhibited [3]: up to 150 μM
reversibility of inhibition of DNA ligase [4]: not reversible
complete inhibition of the formation of DNA-enzyme complex [5]: ≥ 12 µM
mode of inhibition of DNA synthesis [5]: competitive with respect to template and noncompetitive with respect to substrate
